Experimental data taken from patent US9109004B2, “Progesterone receptor antagonists” (Bayer Intellectual Property GmbH, priority 2010, dated 2015).

Experiments:
[1] = Clearance and half-life after intravenous application in rats; type: in vivo, rat; conditions: female rats, i.v. bolus 0.3-0.5 mg/kg
Method: Determination of Clearance and Half-Life after Intravenous Application in Rats
The in-vivo clearance and half-life of the test substances were determined in female rats with a body weight of approx. 200-250 g. For this, the test substances (in cassette testing, up to 3 different substances per animal) were applied in dissolved form at a dose of 0.3-0.5 mg/kg as a bolus with a volume of 2 ml/kg intravenously (i.v.) in the caudal vein, using compatible solubilizers such as PEG400 and/or ethanol in a compatible amount. Blood samples of approx. 0.2 mL were taken from a polyurethane catheter in the vena jugularis at the time points 2 min, 8 min, 15 min, 30 min, 45 min, 1 h, 2 h, 4 h, 6 h, 8 h, 24 h. The blood samples were kept in lithium-heparin tubes (Monovetten® from Sarstedt) without shaking, and were centrifuged for 15 min at 3000 rpm. A 100 μL aliquot was taken from the supernatant (plasma) and was precipitated by adding 400 μL of cold methanol. The precipitated samples were frozen out overnight at −20° C., then centrifuged once again for 15 min at 3000 rpm before 150 μL of the clear supernatant was taken for the determination of concentration. Analysis was carried out with an Agilent 1200 HPLC system connected to LCMS/MS detection.
Calculation of the pK Parameters (Via Non-Linear Regression by pK Calculation Software): […]

[2] = biological target: T1, human progesterone receptor B (Homo sapiens, UniProt P06401); assay: Progesterone-receptor-antagonistic action in stably transfected SK-N-MC cells, MTV-LUC reporter (PR-B); type: cell-based; conditions: antagonistic potency vs 0.1 nmol/l promegestone, 24 hours, luciferase
T1 construct: expressed in transfected cells; host or cells: SK-N-MC human neuroblastoma cells, stably transfected
T1 sequence (P06401 1-933): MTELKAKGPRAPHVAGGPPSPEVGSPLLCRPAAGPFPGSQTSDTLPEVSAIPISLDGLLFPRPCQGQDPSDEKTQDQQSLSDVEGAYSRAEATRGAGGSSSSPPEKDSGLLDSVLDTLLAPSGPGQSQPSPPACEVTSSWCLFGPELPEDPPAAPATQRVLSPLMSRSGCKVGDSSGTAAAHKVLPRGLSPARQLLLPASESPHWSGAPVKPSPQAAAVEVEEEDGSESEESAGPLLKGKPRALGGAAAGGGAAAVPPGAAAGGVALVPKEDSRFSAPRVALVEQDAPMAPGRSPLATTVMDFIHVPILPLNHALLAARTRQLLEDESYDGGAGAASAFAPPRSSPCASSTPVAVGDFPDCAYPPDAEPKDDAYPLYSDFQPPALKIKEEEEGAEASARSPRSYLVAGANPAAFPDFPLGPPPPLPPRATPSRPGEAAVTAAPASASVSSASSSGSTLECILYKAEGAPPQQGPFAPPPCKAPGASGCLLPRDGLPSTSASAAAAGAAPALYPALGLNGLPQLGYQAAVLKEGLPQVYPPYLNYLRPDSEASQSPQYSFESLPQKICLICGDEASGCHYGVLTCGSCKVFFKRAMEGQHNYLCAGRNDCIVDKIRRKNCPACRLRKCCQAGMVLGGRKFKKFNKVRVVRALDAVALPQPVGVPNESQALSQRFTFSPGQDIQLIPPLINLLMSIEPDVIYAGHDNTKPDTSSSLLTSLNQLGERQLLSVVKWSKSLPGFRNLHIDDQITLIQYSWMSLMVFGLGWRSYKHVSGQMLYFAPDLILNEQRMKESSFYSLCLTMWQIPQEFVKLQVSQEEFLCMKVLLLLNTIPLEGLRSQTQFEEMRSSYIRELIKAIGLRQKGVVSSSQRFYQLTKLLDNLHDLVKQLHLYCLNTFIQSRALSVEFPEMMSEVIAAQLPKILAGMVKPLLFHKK
Method: Progesterone-Receptor-Antagonistic Action in Stable Transfectants of Human Neuroblastoma Cells (SK-N-MC Cells) with the Human Progesterone A or Progesterone B Receptor and an MTV-LUC Reporter Construct
SK-N-MC cells (human neuroblastoma cells) that have been stably transfected with plasmids that express the human progesterone receptor B (pRChPR-B-neo) or the human progesterone receptor A (pRChPR-A-neo) and a reporter construct (pMMTV-LUC), were incubated for 24 hours either in the absence (negative control) or in the presence of increasing amounts of the particular test compound (0.01 nmol/l, 0.1 nmol/l, 1 nmol/l, 10 nmol/l, 100 nmol/l and 1 μmol/l), to determine the agonistic efficacy. As positive control of reporter gene induction, the cells were treated with the synthetic gestagen promegestone (0.01 nmol/l, 0.1 nmol/l, 1 nmol/l, 10 nmol/l, 100 nmol/l and 1 μmol/l). For determination of the antagonistic activity, the cells were treated with 0.1 nmol/l promegestone and additionally with increasing amounts of the particular test compound (0.01 nmol/l, 0.1 nmol/l, 1 nmol/l, 10 nmol/l, 100 nmol/l and 1 μmol/l). The activity of the reporter gene LUC (LUC=luciferase) was determined in the cell lysates and was measured as RLU (relative light units). All measured values are given as % efficacy and as EC50 or IC50 concentrations.

CLblood [1]: 6.7 mL/min/kg
half-life ([1]; rat, plasma, iv, terminal half-life, read-out: t½ (converted)): 9 h
IC50 [2]: 0.07 nM
Structure (SMILES): C[C@]12C[C@H](c3ccc(-c4ccc(C(N)=O)cc4)cc3)C3=C4CCC(=O)C=C4CC[C@H]3[C@@H]1CC[C@@]2(O)C(F)(F)C(F)(F)F [Example 79, 4′-[(11β,17β)-17-Hydroxy-3-oxo-17-(pentafluoroethyl)estra-4,9-dien-11-yl]biphenyl-4-carboxamide]
